This is an account of results in a melting point compilation (Tetko et al.; mined from patent text by program, amines drawn as free bases though some values may be those of a salt).

As usually defined, the melting point is the temperature of the solid-liquid transition.

Where only a bound is given, the exact number is not on record here.

Compound `CCCCOc1ncc(C(C)=O)cc1-c1nn2c(CC)nc(CN3CCOCC3)c2c(=O)[nH]1` registered a melting point of 145 to 149 °C. Compound `CC(C)(C)OC(=O)[C@@H](N)Cc1ccc(O)c(I)c1` came in with a melting point of 158 to 159 °C. For `COc1ccccc1C(=O)c1cccc(N)c1` the value was 81 °C; for `COc1ccc2cccc(N3CCN(CCC4CC(=O)Nc5ccccc54)CC3)c2c1` (stereo not drawn), 177 to 178 °C; for `NC1CCc2ccccc2C1NC(=O)OCc1ccccc1` (stereo not drawn), 102 to 145 °C. For `CC1(C)Oc2ccc(C#N)cc2[C@@H](NC2=C(F)C(=O)CC2)[C@@H]1O` (relative stereo) the value was 250 to 252 °C; for `CN1C(=O)C2(COc3cc4c(cc32)OCCO4)c2c(C(=O)N3CCCC3)cccc21` (stereo not drawn), 242 to 244 °C; for `CC(C)(Cl)C(CCNC(=O)C(F)(F)F)N=O` (stereo not drawn), 91 to 93 °C.

With `NS(=O)(=O)c1c(C(=O)O)cnn1-c1cccc(Cl)n1`, the melting point fell in the range of 179 to 182 °C. With `CC(C)Oc1cccc(-n2c(NC(=O)Nc3ccc(Br)cc3)nc3ccccc3c2=O)c1` the figure was 230 to 233 °C. For `Cc1c(S(=O)c2cc(Cl)c(Cl)cc2Cl)cc(C(C)(C)C)c(O)c1C(=O)Nc1ccc([N+](=O)[O-])cc1C(F)(F)F` (stereo not drawn) the value was 234 to 235 °C; for `COc1cc(NC(=O)C(C#N)=CNc2ccc(OC)c(I)c2)c(Cl)cc1Cl`, 289 to 290 °C; for `CC(C)c1nccc2c(C(C)C(=O)O)cccc12` (stereo not drawn), 138 °C. `CCn1cc(C2(c3cccc(-c4cccnc4F)c3)N=C(N)N(C)C2=O)cc1COC` (stereo not drawn): the melting point fell in the range of 154 to 157 °C. For `Cc1ccc2c(Sc3cc(Cl)cc(Cl)c3)c(CC(N)=O)[nH]c2c1` the value was 197 °C; for `NS(=O)(=O)c1cccc(-c2cn(-c3nc(-c4ccc(Cl)c(Cl)c4)cc(C(F)(F)F)n3)cn2)c1`, 239 °C. With `COc1ccc(OCC(=O)CS(=O)(=O)C(c2ccc(Cl)cc2)c2ccc(Cl)cc2)cc1` the figure was 116 to 117 °C; with `CC(=O)OCC1OC(n2cc(C=O)c3c(F)cccc32)C(OC(C)=O)C(OC(C)=O)C1OC(C)=O` (stereo not drawn), 190 to 192 °C. With `CCN(CC)CC1CCCCN1CC(=O)N1c2ccccc2C(=O)Nc2cccnc21` (stereo not drawn), the melting point fell in the range of 210 to 212 °C. With `COC(=O)Cc1cc2c(s1)-n1c(C)nnc1C(C)N=C2c1ccccc1Cl` (stereo not drawn) the figure was 105 to 106 °C; with `O=C(O)Cc1ccc(NC(=O)c2ccccc2SSc2ccccc2C(=O)Nc2ccc(CC(=O)O)cc2)cc1`, 257 to 260 °C. Take `CCOC(=O)c1sc2nc(SCCCN3CCN(c4ccc5ccccc5n4)CC3)[nH]c(=O)c2c1C`: the melting point was in the range of 200 to 201 °C.

`O=[N+]([O-])c1ccc(Oc2ccc([N+](=O)[O-])cc2-c2ccc(C(F)(F)F)cc2C(F)(F)F)c(-c2ccc(C(F)(F)F)cc2C(F)(F)F)c1` returned a melting point of 72 to 73 °C. For `NS(=O)(=O)c1ccc(-n2nc(C(F)(F)F)cc2-c2nc3cccc(F)c3s2)cc1` the value was 251 to 253 °C; for `CCCCCCc1ncc(/C=C(\Cc2cccs2)C(=O)O)n1Cc1ccccc1Cl`, 161 to 163 °C. `CCOP(=O)(CNc1ccc(Cl)cc1[N+](=O)[O-])OCC` had a melting point of 94 to 95 °C.

In turn, `CCOC(=O)c1nc(NC(=N)N=CN(C)C)sc1-c1ccncc1` came in with a melting point of 203 to 204 °C. With `Cc1ccccc1CC(=NC#N)NC(NC(=O)Cc1ccccc1)C(C)(C)C` (stereo not drawn) the figure was 182 to 183 °C. Consider `O=c1oc(/C=C/c2ccc(OC(F)F)c(OC(F)F)c2)nc2ccccc12`, for which the melting point lay in the range of 113 to 115 °C. As to `O=C(O)c1cn2c3c(c(N4CCNCC4)ccc3c1=O)CCC2`, the melting point was in the range of 267 to 268 °C. The compound `C#CCc1c(C)nc2c(OCc3c(C)cccc3N(C)C(C)=O)cccn12` yielded a melting point of 76 °C. Turning to `N=c1sc2cc(OC(F)(F)F)ccc2n1CCSCCCC(=O)c1ccccc1`, the melting point was found to be 72 °C. Compound `CN1CC(CCCl)Oc2ccccc2C1=S` (stereo not drawn) showed a melting point of 105 to 108 °C. On to `COc1cccc(N(C)C(=O)Oc2ccc(C(C)C)cc2)n1`, for which the melting point lay within 64 to 65 °C. For `CCc1cc(-c2nc(C)c(-c3ccnc(Nc4ccc(S(=O)(=O)NCCO)cc4)n3)s2)ccn1` the value was 233 to 234 °C; for `CCCCCCCCCCN(O)C(=O)NCCCCCCC(=O)OC`, 81 to 82 °C; for `NC(=O)CN1C(=O)[C@@H](NC(=O)c2cc3ccccc3[nH]2)[C@H](c2ccccc2)Sc2ccccc21` (relative stereo), 222 to 225 °C. For `CCSc1nsc(NC(=O)Oc2ccccc2)c1C#N` the value was 223 to 225 °C; for `O=c1[nH]nnn1-c1ccc(Cl)cc1F`, 185 to 187 °C. `Cc1cccc(Cl)c1NC(=O)n1nc(Oc2cccc(C(F)(F)F)c2)cc1C` returned a melting point of 55 to 58 °C. `CCOC(=O)C1Cc2cc(C(=O)c3ccccc3F)c(O)c(Cl)c2O1` (stereo not drawn) had a melting point of 119 to 120 °C.

As for `N#Cc1ccc(C(F)(F)C(F)(F)c2ccccc2)cc1`, the melting point was 118 to 123 °C. For `CCCc1nc2c(N)nc3cc(OCC(=O)c4ccccc4)ccc3c2n1CC(C)C` the value was 178 to 180 °C. Compound `CN(Cc1ccccc1)c1cc(C#N)ccc1C1NC(=O)NC1=O` (stereo not drawn) displayed a melting point of 95 to 98 °C.

Take `COC(=O)c1cccc2c1[nH]c1c3cc(Br)ccc3oc21`: the melting point was 204 to 205 °C.

In turn, `CCCCN(CCCC)c1cc(OC)c(C=Cc2cccs2)c(OC)c1` registered a melting point of 90 °C. The compound `N#Cc1c(N2CCc3ccccc3CC2)nc[nH]c1=O` registered a melting point of 139 to 140 °C. For `Cn1cc(-c2cc3cccnc3[nH]2)c2cc(NS(C)(=O)=O)ccc21` the value was 223 to 224 °C; for `CCOc1nnc2cc(Cl)ccc2n1`, 90 to 92 °C; for `NCC1Cc2cc(C(F)(F)F)cc(-c3ccsc3)c2O1` (stereo not drawn), over 250 °C. With `N#Cc1ccc(C=Cc2ccc(C#N)cc2)cc1` the figure was 288 °C; with `COc1cc2c(cc1OCc1ccccc1)CCN(Cc1cc(F)cc(F)c1)C2`, 116 to 117 °C.

In the case of `O=C(c1ccccc1)c1cc2c(cc1O)C(CO)(C(=O)O)CC2` (stereo not drawn), the melting point lay in the range of 104 to 110 °C. For `CCOC(=O)C1CC2=C(CO1)C(=O)c1cc3ccccc3c(OC(C)=O)c1C2=O` (stereo not drawn) the value was 196 to 198 °C; for `Clc1ccc(C2C3=C(CCS3)NC3=C2SCC3)cc1Cl`, over 260 °C; for `Cc1cc2c(cc1C=O)OCO2`, 84 to 86 °C. With `Cn1c(=N)c(F)cn(S(=O)(=O)c2ccccc2)c1=O` the figure was 144 °C; with `CC1(C)OC(=O)c2c(cccc2-c2ccccn2)O1`, 142 °C. For `COc1ccc(-n2cnc3c(-c4ccc(C(F)(F)F)cc4F)ncnc32)cc1`, the melting point fell in the range of 181 to 183 °C. With `COc1cc(OC(C)C)ccc1-c1nc(-c2ccc(OC(C)C)cc2O)nc(-c2ccc(OC(C)C)cc2O)n1` the figure was 185 to 188 °C; with `CN(C)C=C(C#N)C(=O)c1nccs1`, 126 °C. With `O=C(O)C(=O)NCCCCCC1CCSS1` (stereo not drawn) the figure was 75 to 79 °C; with `CN1C(=O)c2c(n3cncc3c3[nH]c4ncccc4c23)C1=O`, 304 to 307 °C. `CC1(C)N=C(c2ccccc2Cl)c2cc(N)ccc2N(CCO)C1=O` returned a melting point of 175 to 176 °C.

`O=C(CNC(=O)c1ccc(F)cc1)c1ccsc1`: the melting point lay in the range of 140 to 141 °C.

Take `CCN1C(=O)CN(C(=O)C(F)(F)F)Cc2cc(OC)c([N+](=O)[O-])cc21`: the melting point fell in the range of 128 to 129 °C.

The compound `CS(=O)(=O)Nc1cc2occ(C(=O)O)c(=O)c2cc1Oc1ccccc1` displayed a melting point of over 250 °C.

`COC(=O)n1nc(Oc2c(F)cc(C(F)(F)F)cc2Cl)cc1C`: the melting point was 123 to 125 °C. `CCOC(=O)c1cc2c3n(ccc-2n1)CC(C(F)(F)F)=N3` came in with a melting point of 230 to 231 °C. Compound `CCOC(=O)c1cccc(NC(=O)CN2C(=O)c3ccccc3C2=O)c1` showed a melting point of 215 °C. In turn, `Cc1cc2c(cc1N)OC(=O)C2C` (stereo not drawn) had a melting point of 123 to 124 °C.

Take `CCC(=O)c1c(C(C)C)nn2ccccc12`: the melting point is 41 to 42 °C. With `Cc1cc(Oc2ccc(N)cc2C(F)(F)F)n[nH]1` the figure was 143 to 145 °C; with `CS(=O)(=O)c1ccc(C2=C(c3ccc4c(c3)OCO4)CCC2)cc1`, 140 to 141 °C. Compound `Cc1c(-c2ccc3c(c2)NC(=O)CO3)nc2ccccn12` gave a melting point of 280 to 282 °C. For the compound `CC(c1ccccc1)N1Cc2cncn2C(c2ccc(Br)cc2)C1=O` (single isomer, unassigned; (+)), the melting point lay in the range of 147 to 148 °C. As for `C=CCn1c(CSC#N)nc2ccccc2c1=O`, the melting point fell in the range of 73 to 76 °C. As to `COc1ccc(OCC(O)CN2CCN(C(N)=O)CC2)cc1` (stereo not drawn), the melting point is 192 to 195 °C.

In turn, `C#CCN(C(=O)OC(C)(C)C)C1CCc2ccc([N+](=O)[O-])cc21` (stereo not drawn) gave a melting point of 56 to 59 °C. With `CC(=O)c1ccc2c(c1)OC(C(=O)O)CO2` (stereo not drawn) the figure was 167 to 168 °C.

As for `O=C(O)CCCNC(=O)c1cccc(NC(=O)c2ccccc2O)c1`, the melting point fell in the range of 172 to 174 °C. For `O=C(NC1CCCCC1)c1ccc2nonc2c1` the value was 172 to 173 °C; for `CCCC1CCC(C2CC3(C2)CC(C(F)(F)Oc2cc(F)c(F)c(F)c2)C3)CC1` (stereo not drawn), 43 °C.

`N#Cc1ccc2c(c1)CC(Br)C2=O` (stereo not drawn): the melting point lay within 115 to 118 °C. In turn, `CC(C)CCCC(C)NC(=O)CCC(O)c1ccccc1` (stereo not drawn) came in with a melting point of 72 to 89 °C. For the compound `COc1ccc(C2(c3ccc(OC)cc3)CCN(C[C@H]3CN(C)[C@@H]4Cc5c[nH]c6cccc(c56)[C@@]4(OC)C3)CC2)cc1`, the melting point was 215 to 222 °C. With `COc1cc2c3c(c1OC)CN(C)CC3Cc1cc3c(cc1-2)OCO3` (stereo not drawn) the figure was 169 to 172 °C; with `CCCCC(CC(=O)O)c1cc(Cl)c(OC)cc1OC` (stereo not drawn), 91 to 92 °C.
